Experimental data as given in ChEMBL document CHEMBL3217424, “Total synthesis and anti-cholinesterase activity of marine-derived bis-indole alkaloid fascaplysin” (Medchemcomm, 2012).
Activity calls are given as the source filed them. The calls are words filed in the database; no cut-off is given here.

Key:
[1] = target: Cyclin-dependent kinase 1/cyclin B1 (Homo sapiens, UniProt P06493); assay: Inhibition of CDK1/cyclin-B (unknown origin); assay type: protein-complex assay
[2] = target: Cyclin-dependent kinase 2/cyclin E1 (Homo sapiens, UniProt P24941); assay: Inhibition of CDK2/cyclin-E (unknown origin); assay type: protein-complex assay
[3] = target: Cyclin-dependent kinase 4/cyclin D2 (Homo sapiens, UniProt P11802+P30279); assay: Inhibition of CDK4/cyclin-D2 (unknown origin); assay type: protein-complex assay
CDK4/Cyclin D3 = CDK4/Cyclin D3 (Homo sapiens, UniProt P11802); assay: Inhibition of CDK4/cyclin-D3 (unknown origin); assay type: protein-complex assay
[4] = target: Cyclin-dependent kinase 5/CDK5 activator 1 (Homo sapiens, UniProt Q00535); assay: Inhibition of CDK5/p-35 (unknown origin); assay type: protein-complex assay
CDK6/cyclin D2 = CDK6/cyclin D2 (Homo sapiens, UniProt P30279+Q00534); assay: Inhibition of CDK6/cyclin-D2 (unknown origin); assay type: protein-complex assay
Acetylcholinesterase [5] = target: T1, Acetylcholinesterase (Electrophorus electricus, UniProt O42275); assay: Inhibition of Electrophorus electricus AChE using acetylthiocholine iodide as substrate after 30 mins by Ellman's method
Cholinesterase [6] = target: T2, Cholinesterase (Equus caballus, UniProt P81908); assay: Inhibition of equine serum BuChE using S-butyrylthiocholine iodide as substrate after 30 mins by Ellman's method
Acetylcholinesterase [7] = target: T1, Acetylcholinesterase; assay: Non-competitive inhibition of Electrophorus electricus AChE using acetylthiocholine iodide as substrate by Lineweaver-Burk reciprocal plot analysis
Cholinesterase [8] = target: T2, Cholinesterase; assay: Non-competitive inhibition of equine serum BuChE using S-butyrylthiocholine iodide as substrate by Lineweaver-Burk reciprocal plot analysis
[9] = target: Acetylcholinesterase (Electrophorus electricus) (UniProt O42275); assay: Inhibition of Electrophorus electricus AChE using acetylthiocholine iodide as substrate at 10 uM after 30 mins by Ellman's method
[10] = target: Acetylcholinesterase (Homo sapiens) (UniProt P22303); assay: Ratio of physostigmine IC50 to compound IC50 for acetylcholinesterase (unknown origin)
Sequence of Acetylcholinesterase (Homo sapiens) (P22303 whole entry): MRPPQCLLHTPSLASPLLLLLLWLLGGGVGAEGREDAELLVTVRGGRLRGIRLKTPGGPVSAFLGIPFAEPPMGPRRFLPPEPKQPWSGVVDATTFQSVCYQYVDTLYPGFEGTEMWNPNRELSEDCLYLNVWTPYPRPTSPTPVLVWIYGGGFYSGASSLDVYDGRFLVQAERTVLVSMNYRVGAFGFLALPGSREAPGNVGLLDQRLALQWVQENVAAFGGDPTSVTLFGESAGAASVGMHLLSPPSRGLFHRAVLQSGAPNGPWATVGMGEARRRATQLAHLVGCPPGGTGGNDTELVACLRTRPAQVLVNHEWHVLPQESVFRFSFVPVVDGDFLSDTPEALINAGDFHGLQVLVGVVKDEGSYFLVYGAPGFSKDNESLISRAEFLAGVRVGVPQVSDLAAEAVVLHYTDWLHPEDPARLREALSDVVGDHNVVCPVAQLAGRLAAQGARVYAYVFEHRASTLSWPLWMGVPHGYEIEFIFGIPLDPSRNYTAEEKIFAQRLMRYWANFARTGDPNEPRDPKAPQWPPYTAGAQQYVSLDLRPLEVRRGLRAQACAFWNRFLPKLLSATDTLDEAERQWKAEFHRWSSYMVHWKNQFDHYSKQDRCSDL

Sequence of Acetylcholinesterase (Electrophorus electricus) (O42275 24-633 limits assumed): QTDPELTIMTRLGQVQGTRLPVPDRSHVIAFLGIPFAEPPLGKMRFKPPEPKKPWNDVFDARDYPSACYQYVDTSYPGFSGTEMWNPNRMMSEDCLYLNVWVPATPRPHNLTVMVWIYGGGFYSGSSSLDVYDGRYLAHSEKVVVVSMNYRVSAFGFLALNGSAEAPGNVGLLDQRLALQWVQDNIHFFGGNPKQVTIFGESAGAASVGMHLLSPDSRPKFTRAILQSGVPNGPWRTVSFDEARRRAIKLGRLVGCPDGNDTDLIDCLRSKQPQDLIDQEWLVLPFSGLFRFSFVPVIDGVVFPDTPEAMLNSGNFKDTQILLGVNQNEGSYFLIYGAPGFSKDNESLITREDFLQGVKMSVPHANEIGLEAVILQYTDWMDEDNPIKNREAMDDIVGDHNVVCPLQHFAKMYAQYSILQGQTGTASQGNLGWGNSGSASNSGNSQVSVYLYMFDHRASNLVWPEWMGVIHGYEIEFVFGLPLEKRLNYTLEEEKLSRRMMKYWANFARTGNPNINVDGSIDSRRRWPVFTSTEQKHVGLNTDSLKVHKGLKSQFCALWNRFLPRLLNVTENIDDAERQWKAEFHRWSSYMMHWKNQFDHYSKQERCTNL
T2 sequence (P81908 whole entry): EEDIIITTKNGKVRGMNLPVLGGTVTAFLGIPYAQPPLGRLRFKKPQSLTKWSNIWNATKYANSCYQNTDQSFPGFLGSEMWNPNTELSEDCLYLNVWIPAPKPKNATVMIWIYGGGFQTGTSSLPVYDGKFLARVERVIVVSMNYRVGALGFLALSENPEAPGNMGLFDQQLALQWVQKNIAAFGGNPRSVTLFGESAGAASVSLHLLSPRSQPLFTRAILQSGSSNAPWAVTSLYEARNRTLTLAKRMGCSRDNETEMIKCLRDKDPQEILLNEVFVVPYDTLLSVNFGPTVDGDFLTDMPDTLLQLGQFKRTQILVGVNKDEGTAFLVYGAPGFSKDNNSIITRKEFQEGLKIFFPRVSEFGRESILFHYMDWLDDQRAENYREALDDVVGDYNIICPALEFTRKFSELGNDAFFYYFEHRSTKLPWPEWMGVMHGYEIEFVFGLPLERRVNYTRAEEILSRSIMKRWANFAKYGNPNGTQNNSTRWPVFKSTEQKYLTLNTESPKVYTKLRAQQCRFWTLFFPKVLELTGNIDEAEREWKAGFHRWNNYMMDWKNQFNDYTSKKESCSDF
T1 sequence (O42275 whole entry): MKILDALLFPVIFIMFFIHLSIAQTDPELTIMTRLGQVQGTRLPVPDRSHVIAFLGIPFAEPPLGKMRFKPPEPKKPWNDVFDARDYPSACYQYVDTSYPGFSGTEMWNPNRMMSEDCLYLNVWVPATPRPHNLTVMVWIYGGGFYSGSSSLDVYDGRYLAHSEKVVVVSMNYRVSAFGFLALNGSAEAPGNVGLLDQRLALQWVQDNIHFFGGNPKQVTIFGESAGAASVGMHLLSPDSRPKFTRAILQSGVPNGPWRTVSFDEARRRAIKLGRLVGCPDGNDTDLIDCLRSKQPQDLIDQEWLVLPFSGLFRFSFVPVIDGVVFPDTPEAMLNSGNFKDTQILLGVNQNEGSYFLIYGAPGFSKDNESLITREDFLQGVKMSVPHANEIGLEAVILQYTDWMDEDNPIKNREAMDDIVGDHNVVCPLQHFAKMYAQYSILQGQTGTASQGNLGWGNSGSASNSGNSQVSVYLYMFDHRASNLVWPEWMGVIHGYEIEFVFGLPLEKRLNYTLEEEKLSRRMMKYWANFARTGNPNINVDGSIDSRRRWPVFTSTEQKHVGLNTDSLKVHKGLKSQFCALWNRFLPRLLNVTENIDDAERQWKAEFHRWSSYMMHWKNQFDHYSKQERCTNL
Sequence of CDK6/cyclin D2 (Q00534 whole entry): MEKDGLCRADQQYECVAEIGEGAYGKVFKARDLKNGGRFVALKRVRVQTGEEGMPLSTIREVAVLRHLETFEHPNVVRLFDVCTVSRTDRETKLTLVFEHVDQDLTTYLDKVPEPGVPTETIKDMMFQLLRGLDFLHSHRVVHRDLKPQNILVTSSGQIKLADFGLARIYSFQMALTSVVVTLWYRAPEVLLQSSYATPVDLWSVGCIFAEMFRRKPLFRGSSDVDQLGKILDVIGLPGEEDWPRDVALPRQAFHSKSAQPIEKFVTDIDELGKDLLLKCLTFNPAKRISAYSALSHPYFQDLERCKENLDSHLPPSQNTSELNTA
Sequence of CDK6/cyclin D2 (P30279 whole entry): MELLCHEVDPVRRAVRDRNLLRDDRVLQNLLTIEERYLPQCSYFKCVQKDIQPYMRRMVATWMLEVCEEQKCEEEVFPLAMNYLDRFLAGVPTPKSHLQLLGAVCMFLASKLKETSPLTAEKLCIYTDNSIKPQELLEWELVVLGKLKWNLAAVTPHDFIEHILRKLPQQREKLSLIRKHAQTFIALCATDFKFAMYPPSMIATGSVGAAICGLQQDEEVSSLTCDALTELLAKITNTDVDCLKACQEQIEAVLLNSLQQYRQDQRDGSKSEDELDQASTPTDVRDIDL
Sequence of Cyclin-dependent kinase 5/CDK5 activator 1 (Q00535 whole entry): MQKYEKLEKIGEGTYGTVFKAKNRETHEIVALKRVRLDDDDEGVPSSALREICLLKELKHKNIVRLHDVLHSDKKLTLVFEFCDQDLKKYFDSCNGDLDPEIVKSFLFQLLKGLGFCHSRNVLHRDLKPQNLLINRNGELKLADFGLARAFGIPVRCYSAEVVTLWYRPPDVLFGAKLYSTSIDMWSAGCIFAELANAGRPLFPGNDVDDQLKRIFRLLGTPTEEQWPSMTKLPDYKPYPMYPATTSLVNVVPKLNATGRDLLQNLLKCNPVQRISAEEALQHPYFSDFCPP
Sequence of Cyclin-dependent kinase 5/CDK5 activator 1 (Q15078 whole entry, further chain): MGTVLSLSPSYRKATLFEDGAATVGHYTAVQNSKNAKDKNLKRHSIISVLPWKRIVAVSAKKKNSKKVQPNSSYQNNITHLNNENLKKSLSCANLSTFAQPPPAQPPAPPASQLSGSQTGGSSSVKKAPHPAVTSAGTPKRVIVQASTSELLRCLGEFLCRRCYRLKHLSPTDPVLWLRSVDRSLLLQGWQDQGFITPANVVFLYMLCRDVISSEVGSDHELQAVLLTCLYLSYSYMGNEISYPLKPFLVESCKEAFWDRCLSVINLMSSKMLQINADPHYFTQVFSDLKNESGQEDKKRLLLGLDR
Sequence of Cyclin-dependent kinase 1/cyclin B1 (P06493 whole entry): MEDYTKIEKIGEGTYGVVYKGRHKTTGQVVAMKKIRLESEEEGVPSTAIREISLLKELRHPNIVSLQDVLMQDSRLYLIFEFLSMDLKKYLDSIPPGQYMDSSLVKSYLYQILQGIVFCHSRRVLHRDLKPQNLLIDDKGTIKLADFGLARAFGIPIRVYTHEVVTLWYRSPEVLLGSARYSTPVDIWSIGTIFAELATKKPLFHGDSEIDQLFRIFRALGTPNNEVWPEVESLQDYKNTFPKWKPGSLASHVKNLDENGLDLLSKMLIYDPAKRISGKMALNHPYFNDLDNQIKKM
Sequence of Cyclin-dependent kinase 1/cyclin B1 (P14635 whole entry, further chain): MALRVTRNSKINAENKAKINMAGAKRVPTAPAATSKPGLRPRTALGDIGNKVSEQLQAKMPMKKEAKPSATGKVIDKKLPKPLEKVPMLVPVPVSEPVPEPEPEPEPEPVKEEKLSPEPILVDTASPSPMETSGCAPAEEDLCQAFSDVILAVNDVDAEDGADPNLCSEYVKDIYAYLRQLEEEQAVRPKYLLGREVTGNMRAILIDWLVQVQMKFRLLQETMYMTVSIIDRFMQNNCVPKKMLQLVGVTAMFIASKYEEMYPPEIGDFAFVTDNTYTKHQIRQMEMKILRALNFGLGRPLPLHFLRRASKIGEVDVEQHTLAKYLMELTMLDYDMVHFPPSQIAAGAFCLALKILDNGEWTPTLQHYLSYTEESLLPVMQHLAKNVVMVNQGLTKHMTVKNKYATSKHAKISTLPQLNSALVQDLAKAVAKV
Sequence of Cyclin-dependent kinase 4/cyclin D2 (P11802 whole entry): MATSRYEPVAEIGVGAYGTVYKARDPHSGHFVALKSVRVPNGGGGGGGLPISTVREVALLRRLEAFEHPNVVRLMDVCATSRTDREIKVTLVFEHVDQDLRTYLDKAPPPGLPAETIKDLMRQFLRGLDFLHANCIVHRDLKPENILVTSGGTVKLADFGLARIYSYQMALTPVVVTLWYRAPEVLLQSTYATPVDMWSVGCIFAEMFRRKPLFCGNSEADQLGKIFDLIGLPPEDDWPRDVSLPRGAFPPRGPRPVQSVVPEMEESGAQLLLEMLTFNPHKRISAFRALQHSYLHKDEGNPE
Sequence of Cyclin-dependent kinase 4/cyclin D2 (P30279 whole entry): as the sequence (P30279 whole entry) above

O=C1c2ccccc2-[n+]2ccc3c([nH]c4ccccc43)c21 [FASCAPLYSIN]
IC50 [1]: > 100 µM
IC50 [2]: > 50 µM
IC50 [3]: > 100 µM
IC50 (CDK4/Cyclin D3): > 100 µM
IC50 [4]: 20 µM
IC50 (CDK6/cyclin D2): > 50 µM
IC50 (Acetylcholinesterase [5]): 1.49 µM
IC50 (Cholinesterase [6]): 90.5 µM
Ki (Acetylcholinesterase [7]): 2.28 µM
Ki (Cholinesterase [8]): 48.5 µM
inhibition [9]: 86%

COC(=O)C1=CO[C@@H](C)[C@H]2C[n+]3ccc4c([nH]c5ccccc54)c3C[C@H]12
Ratio IC50 [10]: 10

O=C(c1ccccc1Cl)c1nccc2c1[nH]c1ccccc12
inhibition [9]: inactive
